Experimental data reported in patent US6605619B1, “Nitroxides as protectors against oxidatives stress” (The United States of America as represented by the …, priority 1992, dated 2003).

Columns and labels:
[1] = test system: Chinese hamster V79 cells; test: Protection of cells exposed to HX/XO, clonogenic survival; format: cell-based; details: 0.05 U/ml XO + 0.5 mM HX, 37° C.; 5 mM nitroxide; 100 U/ml catalase; SOD; 500 μM DF preincubated 2 h
Protocol: Chinese hamster V79 cells were grown in F12 medium supplemented with 10% fetal calf serum, penicillin, and streptomycin. Survival was assessed in all studies by the clonogenic assay. The plating efficiency range between 80-90%. Stock cultures of exponentially growing cells were trypsinized, rinsed, and plated (5×10^5 cells/dish) into a number of 100 mm petri dishes and incubated 16 h at 37° C. prior to experimental protocols. Cells were exposed for 1 h at 37° C. to either 0.5 mM hypoxanthine (HX)+0.05 U/ml of xanthine oxidase (XO) for varying lengths of time, or to H2O2 at different concentrations. To assess possible modulation in cytotoxicity, catalase, 100 U/ml; SOD, 100 μg/ml; DF, 500 μM; and 5 mM of each of the nitroxides from Table 1 were added to parallel cultures. CHD was prepared in a stock solution in ethanol and diluted into medium such that the final concentration was 5 mM. […] TEMPOL is water soluble and was prepared directly in tissue culture medium. […] DF was added either 2 h prior to or during treatment while the other agents were present only during HX/XO or H2O2 treatment. Following treatment, cells were rinsed, trypsinized, counted, and plated for macroscopic colony formation. For each dose determination cells were plated in triplicate and the experiments were repeated a minimum of two times. Plates were incubated 7 days, after which colonies were fixed with methanol/acetic acid, stained with crystal violet, and counted. Colonies containing >50 cells were scored. Error bars represent S.D. of the mean and are shown when larger than the symbol.

[2] = Water/octanol partition of nitroxides, ratio determined by EPR; format: physicochemical; details: Octanol:water
Description: CHD, 2-spirocyclohexane doxyl(2-spirocyclohexane-5,5-dimethyl-3-oxazolidinoxyl) and OXANO, 2-ethyl-2,5,5-trimethyl-3-oxazolidine-1-oxyl as well as other nitroxides were synthesized as described by Keana et al (J. Am. Chem. Soc., 89, 3055-3056, 1967) For the general synthesis of the cyclic amines, the appropriate starting ketone was reacted with 2-amino-2-methyl-1-propanol in benzene in the presence of catalytic amounts of p-toluene sulfonic acid. As the cyclic structure formed, water was eliminated. The volume of water collected in a Dean Stark apparatus was monitored and used to gauge the reaction progress. The amines thus produced were purified through fractional distillation under reduced pressure, characterized by 220 MHz ^1H NMR, IR, UV, either EI or CI mass spectroscopy, and subsequently oxidized to the corresponding nitroxides using m-chloroperbenzoic acid. The nitroxides were purified by silica flash chromatography (Still et al, J. Org. Chem., 43, 2923-2925, 1978). Water/octanol ratios were determined by placing a quantity of nitroxide in water+octanol within a separatory funnel. The mixture was shaken thoroughly and allowed to separate for 15 min, whereupon aliquots were taken from both fractions and the ratio of nitroxide distribution was determined using electron paramagnetic resonance (EPR) spectroscopy, by comparing the intensities of signal obtained under N2.

With CC1(C)CN([O])C2(CCCCC2)O1 [CHD, 2-spirocyclohexane-5,5-dimethyl-3-oxazolidinoxyl] the “cell survival / protection from HX/XO” value [1] was “fully protected” and the Partition coefficient [2] was 80.
